Key:
ERBB3 = ERBB3 (Homo sapiens (Human), UniProt P21860); experiment: KINOMEscan scanMAX; format: binding; conditions: 2000 nM; read-out: Percent Control
YSK4 (MAP3K19) = YSK4 (MAP3K19) (Homo sapiens (Human), UniProt Q56UN5); experiment: KINOMEscan scanMAX; format: binding; conditions: 2000 nM; read-out: Percent Control
MKNK2 = MKNK2 (Homo sapiens (Human), UniProt Q9HBH9); experiment: KINOMEscan scanMAX; format: binding; conditions: 2000 nM; read-out: Percent Control
TAOK1 = TAOK1 (Homo sapiens (Human), UniProt Q7L7X3); experiment: KINOMEscan scanMAX; format: binding; conditions: 2000 nM; read-out: Percent Control
PAK6 = PAK6 (Homo sapiens (Human), UniProt Q9NQU5); experiment: KINOMEscan scanMAX; format: binding; conditions: 2000 nM; read-out: Percent Control
YSK1 (STK25) = YSK1 (STK25) (Homo sapiens (Human), UniProt O00506); experiment: KINOMEscan scanMAX; format: binding; conditions: 2000 nM; read-out: Percent Control
MUSK = MUSK (Homo sapiens (Human), UniProt O15146); experiment: KINOMEscan scanMAX; format: binding; conditions: 2000 nM; read-out: Percent Control
KIT(L576P) = KIT(L576P) (Homo sapiens (Human), UniProt P10721, L576P); experiment: KINOMEscan scanMAX; format: binding; conditions: 2000 nM; read-out: Percent Control
[1] = target: RSK3(Kin.Dom.1-N-terminal) (RPS6KA2) (Homo sapiens (Human), UniProt Q15349); experiment: KINOMEscan scanMAX; format: binding; conditions: 2000 nM; read-out: Percent Control
ERK5 (MAPK7) = ERK5 (MAPK7) (Homo sapiens (Human), UniProt Q13164); experiment: KINOMEscan scanMAX; format: binding; conditions: 2000 nM; read-out: Percent Control
EGFR(L858R) = EGFR(L858R) (Homo sapiens (Human), UniProt P00533, L858R); experiment: KINOMEscan scanMAX; format: binding; conditions: 2000 nM; read-out: Percent Control
AMPK-alpha2 (PRKAA2) = AMPK-alpha2 (PRKAA2) (Homo sapiens (Human), UniProt P54646); experiment: KINOMEscan scanMAX; format: binding; conditions: 2000 nM; read-out: Percent Control
TNNI3K = TNNI3K (Homo sapiens (Human), UniProt Q59H18); experiment: KINOMEscan scanMAX; format: binding; conditions: 2000 nM; read-out: Percent Control
LNCaP-C4-2 cells = experiment: PSA production (ELISA) in LNCaP-C4-2 cells; format: cell-based, human; conditions: 4 days treatment, conditioned media
Procedure: Prostate cancer LNCaP-C4-2 cells were treated with different concentrations of the compounds for 4 days and the conditioned media were collected for quantification of prostate specific antigen (PSA) with an ELISA kit.

ERK8 (MAPK15) = ERK8 (MAPK15) (Homo sapiens (Human), UniProt Q8TD08); experiment: KINOMEscan scanMAX; format: binding; conditions: 2000 nM; read-out: Percent Control
HL60-Luc cells = experiment: HL60-Luc proliferation assay (BLI); format: cell-based; conditions: HL-60-Luc, 168 h; 7 days
Procedure: The anti-leukemic activity was also evaluated with a HL60 assay. The HL60 assay was performed by a similar procedure as MV4-11 assay. A derivative of the HL-60 leukemia cell line was generated to express Luciferase and ZsGreen by lentiviral infection with pHIV-Luc-ZsGreen, to enable leukemia growth analysis by bioluminescence imaging (BLI). The initial Luciferase-ZsGreen transduced cell population was sorted for ZsGreen positivity with fluorescence activated cell sorting and individual clones were tested for luciferase expression. […] The HL-60 assay was performed in 96-well plates by treating the HL60-Luc cells with testing compounds at different concentrations for 7 days, followed by BLI to quantify the effects of test articles on cell proliferation.

LKB1 (STK11) = LKB1 (STK11) (Homo sapiens (Human), UniProt Q15831); experiment: KINOMEscan scanMAX; format: binding; conditions: 2000 nM; read-out: Percent Control
ERK2 (MAPK1) = ERK2 (MAPK1) (Homo sapiens (Human), UniProt P28482); experiment: KINOMEscan scanMAX; format: binding; conditions: 2000 nM; read-out: Percent Control
EPHA3 = EPHA3 (Homo sapiens (Human), UniProt P29320); experiment: KINOMEscan scanMAX; format: binding; conditions: 2000 nM; read-out: Percent Control
NEK4 = NEK4 (Homo sapiens (Human), UniProt P51957); experiment: KINOMEscan scanMAX; format: binding; conditions: 2000 nM; read-out: Percent Control
FLT3(N841I) = FLT3(N841I) (Homo sapiens (Human), UniProt P36888, N841I); experiment: KINOMEscan scanMAX; format: binding; conditions: 2000 nM; read-out: Percent Control
CDC2L1 (CDK11B) = CDC2L1 (CDK11B) (Homo sapiens (Human), UniProt P21127); experiment: KINOMEscan scanMAX; format: binding; conditions: 2000 nM; read-out: Percent Control
CSNK1D = CSNK1D (Homo sapiens (Human), UniProt P48730); experiment: KINOMEscan scanMAX; format: binding; conditions: 2000 nM; read-out: Percent Control
FGFR4 = FGFR4 (Homo sapiens (Human), UniProt P22455); experiment: KINOMEscan scanMAX; format: binding; conditions: 2000 nM; read-out: Percent Control
PIK3CA(E545K) = PIK3CA(E545K) (Homo sapiens (Human), UniProt P42336, E545K); experiment: KINOMEscan scanMAX; format: binding; conditions: 2000 nM; read-out: Percent Control
NIK (MAP3K14) = NIK (MAP3K14) (Homo sapiens (Human), UniProt Q99558); experiment: KINOMEscan scanMAX; format: binding; conditions: 2000 nM; read-out: Percent Control
DYRK2 = DYRK2 (Homo sapiens (Human), UniProt Q92630); experiment: KINOMEscan scanMAX; format: binding; conditions: 2000 nM; read-out: Percent Control
MYLK = MYLK (Homo sapiens (Human), UniProt Q15746); experiment: KINOMEscan scanMAX; format: binding; conditions: 2000 nM; read-out: Percent Control
ROCK1 = ROCK1 (Homo sapiens (Human), UniProt Q13464); experiment: KINOMEscan scanMAX; format: binding; conditions: 2000 nM; read-out: Percent Control
PHKG2 = PHKG2 (Homo sapiens (Human), UniProt P15735); experiment: KINOMEscan scanMAX; format: binding; conditions: 2000 nM; read-out: Percent Control
CSNK2A1 = CSNK2A1 (Homo sapiens (Human), UniProt P68400); experiment: KINOMEscan scanMAX; format: binding; conditions: 2000 nM; read-out: Percent Control
p38-alpha (MAPK14) = p38-alpha (MAPK14) (Homo sapiens (Human), UniProt Q16539); experiment: KINOMEscan scanMAX; format: binding; conditions: 2000 nM; read-out: Percent Control
SRPK1 = SRPK1 (Homo sapiens (Human), UniProt Q96SB4); experiment: KINOMEscan scanMAX; format: binding; conditions: 2000 nM; read-out: Percent Control
GSK3B = GSK3B (Homo sapiens (Human), UniProt P49841); experiment: KINOMEscan scanMAX; format: binding; conditions: 2000 nM; read-out: Percent Control
MRCKA (CDC42BPA) = MRCKA (CDC42BPA) (Homo sapiens (Human), UniProt Q5VT25); experiment: KINOMEscan scanMAX; format: binding; conditions: 2000 nM; read-out: Percent Control

YSK1 (STK25), sequence (O00506 whole entry): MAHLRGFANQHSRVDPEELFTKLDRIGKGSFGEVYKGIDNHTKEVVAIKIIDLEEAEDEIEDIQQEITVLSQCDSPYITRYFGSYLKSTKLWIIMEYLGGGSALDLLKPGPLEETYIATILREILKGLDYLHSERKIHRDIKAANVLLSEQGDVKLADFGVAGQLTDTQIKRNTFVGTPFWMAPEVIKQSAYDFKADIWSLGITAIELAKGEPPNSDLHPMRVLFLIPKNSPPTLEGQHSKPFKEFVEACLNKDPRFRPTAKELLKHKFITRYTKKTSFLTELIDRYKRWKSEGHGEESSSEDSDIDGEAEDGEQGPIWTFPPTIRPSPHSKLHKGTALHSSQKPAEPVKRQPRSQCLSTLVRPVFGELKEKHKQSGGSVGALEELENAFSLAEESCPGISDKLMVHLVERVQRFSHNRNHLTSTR
NIK (MAP3K14), sequence (Q99558 whole entry): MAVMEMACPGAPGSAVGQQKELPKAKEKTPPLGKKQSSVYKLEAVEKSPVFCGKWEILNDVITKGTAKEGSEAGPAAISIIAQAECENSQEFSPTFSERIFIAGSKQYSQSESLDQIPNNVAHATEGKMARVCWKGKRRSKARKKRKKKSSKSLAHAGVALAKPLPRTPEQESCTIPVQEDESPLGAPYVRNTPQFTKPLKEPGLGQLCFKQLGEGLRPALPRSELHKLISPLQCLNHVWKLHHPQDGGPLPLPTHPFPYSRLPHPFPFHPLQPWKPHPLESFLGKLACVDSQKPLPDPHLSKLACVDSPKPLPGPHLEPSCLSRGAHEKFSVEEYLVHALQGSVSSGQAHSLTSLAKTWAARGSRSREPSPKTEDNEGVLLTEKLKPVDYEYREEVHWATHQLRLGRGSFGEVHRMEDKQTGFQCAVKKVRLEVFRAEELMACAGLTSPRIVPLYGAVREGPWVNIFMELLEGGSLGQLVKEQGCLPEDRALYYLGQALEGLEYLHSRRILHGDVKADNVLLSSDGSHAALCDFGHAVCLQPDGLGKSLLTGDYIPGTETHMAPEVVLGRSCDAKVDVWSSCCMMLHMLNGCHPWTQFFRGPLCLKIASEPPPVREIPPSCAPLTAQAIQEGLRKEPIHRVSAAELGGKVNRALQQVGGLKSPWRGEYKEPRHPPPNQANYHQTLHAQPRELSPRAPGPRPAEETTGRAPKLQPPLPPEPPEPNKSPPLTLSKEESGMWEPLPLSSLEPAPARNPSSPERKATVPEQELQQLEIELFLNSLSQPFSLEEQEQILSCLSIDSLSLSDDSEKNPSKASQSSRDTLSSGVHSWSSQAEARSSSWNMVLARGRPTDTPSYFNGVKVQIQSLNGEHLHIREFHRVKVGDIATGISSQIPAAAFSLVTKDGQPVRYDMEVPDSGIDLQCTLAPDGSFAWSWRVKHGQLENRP
YSK4 (MAP3K19), sequence (Q56UN5 whole entry): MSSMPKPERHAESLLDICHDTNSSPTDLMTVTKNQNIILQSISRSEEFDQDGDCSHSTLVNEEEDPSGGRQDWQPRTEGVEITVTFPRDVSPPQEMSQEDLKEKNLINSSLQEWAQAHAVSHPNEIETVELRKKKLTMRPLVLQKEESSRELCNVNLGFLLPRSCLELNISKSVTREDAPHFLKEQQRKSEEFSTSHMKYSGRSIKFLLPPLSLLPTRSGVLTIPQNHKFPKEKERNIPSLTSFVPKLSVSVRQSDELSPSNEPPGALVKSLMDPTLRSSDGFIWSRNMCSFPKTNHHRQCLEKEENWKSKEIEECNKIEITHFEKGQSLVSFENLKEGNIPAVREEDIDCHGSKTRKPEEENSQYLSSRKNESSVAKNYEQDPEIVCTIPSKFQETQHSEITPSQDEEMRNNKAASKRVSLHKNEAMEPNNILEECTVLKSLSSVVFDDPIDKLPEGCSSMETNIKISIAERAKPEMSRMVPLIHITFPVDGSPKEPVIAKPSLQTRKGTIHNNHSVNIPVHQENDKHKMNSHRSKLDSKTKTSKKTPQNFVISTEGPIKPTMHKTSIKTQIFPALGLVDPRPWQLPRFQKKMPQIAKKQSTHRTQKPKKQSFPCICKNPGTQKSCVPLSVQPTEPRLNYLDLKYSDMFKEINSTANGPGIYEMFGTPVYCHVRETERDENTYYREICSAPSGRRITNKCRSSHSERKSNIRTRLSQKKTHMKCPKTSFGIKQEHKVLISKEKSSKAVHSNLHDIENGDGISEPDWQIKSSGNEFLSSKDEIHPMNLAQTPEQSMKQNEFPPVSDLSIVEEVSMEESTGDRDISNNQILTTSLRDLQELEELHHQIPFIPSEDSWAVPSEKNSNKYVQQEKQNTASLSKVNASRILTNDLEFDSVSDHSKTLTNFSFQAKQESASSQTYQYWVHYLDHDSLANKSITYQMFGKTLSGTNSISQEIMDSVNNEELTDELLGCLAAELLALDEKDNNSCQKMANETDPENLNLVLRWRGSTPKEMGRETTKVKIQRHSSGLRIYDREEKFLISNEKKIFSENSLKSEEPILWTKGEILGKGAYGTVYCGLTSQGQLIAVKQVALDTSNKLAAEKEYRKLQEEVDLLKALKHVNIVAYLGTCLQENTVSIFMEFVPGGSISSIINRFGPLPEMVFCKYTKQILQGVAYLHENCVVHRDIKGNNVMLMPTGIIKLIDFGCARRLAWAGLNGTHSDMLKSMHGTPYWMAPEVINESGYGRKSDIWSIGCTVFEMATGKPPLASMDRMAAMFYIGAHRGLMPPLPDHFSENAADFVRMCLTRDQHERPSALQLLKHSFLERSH
PAK6, sequence (Q9NQU5 whole entry): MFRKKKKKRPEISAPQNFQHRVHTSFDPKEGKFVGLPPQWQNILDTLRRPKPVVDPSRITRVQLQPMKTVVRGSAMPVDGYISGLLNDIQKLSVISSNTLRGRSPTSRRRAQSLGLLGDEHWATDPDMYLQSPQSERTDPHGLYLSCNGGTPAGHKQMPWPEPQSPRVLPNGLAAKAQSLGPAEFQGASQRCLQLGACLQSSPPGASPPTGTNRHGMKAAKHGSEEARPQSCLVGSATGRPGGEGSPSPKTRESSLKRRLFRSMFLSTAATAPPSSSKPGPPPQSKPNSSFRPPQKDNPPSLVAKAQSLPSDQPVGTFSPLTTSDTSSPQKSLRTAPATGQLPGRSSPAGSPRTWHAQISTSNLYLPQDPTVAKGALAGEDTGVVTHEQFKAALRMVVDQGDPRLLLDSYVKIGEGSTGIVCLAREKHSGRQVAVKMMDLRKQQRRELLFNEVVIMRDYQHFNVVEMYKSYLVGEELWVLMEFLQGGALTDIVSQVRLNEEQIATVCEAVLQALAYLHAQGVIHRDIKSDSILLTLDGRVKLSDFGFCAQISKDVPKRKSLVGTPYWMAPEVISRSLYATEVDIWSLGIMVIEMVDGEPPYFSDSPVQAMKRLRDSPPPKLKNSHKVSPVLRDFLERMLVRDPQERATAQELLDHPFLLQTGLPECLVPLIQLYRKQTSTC
AMPK-alpha2 (PRKAA2), sequence (P54646 whole entry): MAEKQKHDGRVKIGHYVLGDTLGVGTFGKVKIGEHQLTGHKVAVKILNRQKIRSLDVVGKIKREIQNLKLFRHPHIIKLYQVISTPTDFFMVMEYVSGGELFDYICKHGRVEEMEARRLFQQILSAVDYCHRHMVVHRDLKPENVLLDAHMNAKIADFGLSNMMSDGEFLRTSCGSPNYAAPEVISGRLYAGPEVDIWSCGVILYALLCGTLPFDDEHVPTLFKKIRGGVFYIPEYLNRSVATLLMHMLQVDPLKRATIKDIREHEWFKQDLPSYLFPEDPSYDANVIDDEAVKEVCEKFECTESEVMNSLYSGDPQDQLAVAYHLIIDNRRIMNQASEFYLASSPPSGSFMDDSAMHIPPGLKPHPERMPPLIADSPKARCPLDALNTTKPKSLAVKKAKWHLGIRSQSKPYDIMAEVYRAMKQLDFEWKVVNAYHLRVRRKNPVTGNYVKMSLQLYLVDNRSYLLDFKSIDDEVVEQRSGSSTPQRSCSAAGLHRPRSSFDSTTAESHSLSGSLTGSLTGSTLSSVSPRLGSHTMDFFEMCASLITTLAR
DYRK2, sequence (Q92630 whole entry): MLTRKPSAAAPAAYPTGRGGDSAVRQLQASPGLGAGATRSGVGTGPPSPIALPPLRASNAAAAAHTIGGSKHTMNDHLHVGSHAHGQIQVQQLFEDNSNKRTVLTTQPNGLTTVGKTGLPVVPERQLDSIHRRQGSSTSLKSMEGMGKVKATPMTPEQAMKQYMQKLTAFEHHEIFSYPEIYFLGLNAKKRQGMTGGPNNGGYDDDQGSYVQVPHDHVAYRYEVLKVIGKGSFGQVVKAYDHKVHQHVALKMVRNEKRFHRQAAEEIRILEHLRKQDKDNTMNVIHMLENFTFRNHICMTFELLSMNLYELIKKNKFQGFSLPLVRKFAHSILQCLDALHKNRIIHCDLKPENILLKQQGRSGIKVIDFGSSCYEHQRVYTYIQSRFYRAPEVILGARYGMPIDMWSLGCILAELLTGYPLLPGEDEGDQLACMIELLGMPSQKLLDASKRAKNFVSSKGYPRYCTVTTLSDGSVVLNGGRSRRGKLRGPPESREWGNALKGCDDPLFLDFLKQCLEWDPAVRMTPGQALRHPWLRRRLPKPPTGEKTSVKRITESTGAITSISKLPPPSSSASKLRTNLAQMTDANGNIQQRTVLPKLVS
p38-alpha (MAPK14), sequence (Q16539 whole entry): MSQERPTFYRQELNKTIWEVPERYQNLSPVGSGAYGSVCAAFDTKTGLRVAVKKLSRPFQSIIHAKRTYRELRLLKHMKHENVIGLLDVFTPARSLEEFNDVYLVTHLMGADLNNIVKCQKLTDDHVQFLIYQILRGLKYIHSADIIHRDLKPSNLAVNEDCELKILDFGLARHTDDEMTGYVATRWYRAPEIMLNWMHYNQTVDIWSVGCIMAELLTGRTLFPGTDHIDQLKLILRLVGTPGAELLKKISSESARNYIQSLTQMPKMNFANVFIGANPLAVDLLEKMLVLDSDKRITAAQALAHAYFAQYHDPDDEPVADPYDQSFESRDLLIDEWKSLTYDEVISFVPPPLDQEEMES

CN1CCN(C(=O)c2ccc3cc(CCNc4ccnc5ccc(C#N)cc45)ccc3c2)CC1 [compound 6148, 4-((2-(6-(4-methylpiperazine-1-carbonyl)naphthalen-2-yl)ethyl)amino)quinoline-6-carbonitrile]
remaining binding at 2 µM (ERBB3): 76%
remaining binding at 2 µM (YSK4 (MAP3K19)): 50%
remaining binding at 2 µM (MKNK2): 71%
remaining binding at 2 µM (TAOK1): 76%
remaining binding at 2 µM (PAK6): 90%
remaining binding at 2 µM (YSK1 (STK25)): 83%
remaining binding at 2 µM (MUSK): 90%
remaining binding at 2 µM (KIT(L576P)): 100%
remaining binding at 2 µM [1]: 100%
remaining binding at 2 µM (ERK5 (MAPK7)): 94%
remaining binding at 2 µM (EGFR(L858R)): 93%
remaining binding at 2 µM (AMPK-alpha2 (PRKAA2)): 42%
remaining binding at 2 µM (TNNI3K): 100%
Potency in inhibition of PSA production relative to Senexin B (LNCaP-C4-2 cells): ~3 fold
remaining binding at 2 µM (ERK8 (MAPK15)): 76%
IC50 (HL60-Luc cells): 114 nM
remaining binding at 2 µM (LKB1 (STK11)): 87%
remaining binding at 2 µM (ERK2 (MAPK1)): 93%
remaining binding at 2 µM (EPHA3): 100%
remaining binding at 2 µM (NEK4): 60%
remaining binding at 2 µM (FLT3(N841I)): 100%
remaining binding at 2 µM (CDC2L1 (CDK11B)): 96%
remaining binding at 2 µM (CSNK1D): 87%
remaining binding at 2 µM (FGFR4): 96%
remaining binding at 2 µM (PIK3CA(E545K)): 55%
remaining binding at 2 µM (NIK (MAP3K14)): 88%
remaining binding at 2 µM (DYRK2): 68%
remaining binding at 2 µM (MYLK): 83%
remaining binding at 2 µM (ROCK1): 52%
remaining binding at 2 µM (PHKG2): 100%
remaining binding at 2 µM (CSNK2A1): 56%
remaining binding at 2 µM (p38-alpha (MAPK14)): 84%
remaining binding at 2 µM (SRPK1): 91%
remaining binding at 2 µM (GSK3B): 67%
remaining binding at 2 µM (MRCKA (CDC42BPA)): 98%

Source: US12281080B2, “Quinoline-based compounds and methods of inhibiting CDK8/19” (University of South Carolina, priority 2018, dated 2025)
